Assay results published in patent US20160096826A1, “CO-CRYSTALS OF LAPATINIB MONOACID SALTS” (priority 2014, published 2016).
Where a name gives a salt, the structure may show the parent alone. Read-outs that look alike come from different tables or passages of the source.

How the values were obtained:
[1] = coformer acid; cited from earlier work
[2] = male rats; for Cmax: suspension in hydroxypropylmethylcellulose:Tween 80 in WFI, plasma Lapatinib
Method: (§1) For the oral administration, the compounds were suspended in hydroxypropylmethylcellulose:Tween 80 (0.5%:0.1%) in WFI to reach a concentration of 3 mg parent compound/mL in all cases.
(§2) A bioanalytical UPLC®-MS/MS method was characterized and allowed the determination of the Lapatinib in rat plasma; the precision and accuracy of the QC samples was appropriate according to international guidelines.
(§3) A non-compartmental pharmacokinetic analysis was carried out with mean plasma concentration-time curves using WinNonlin® Professional Version 6.3 (Phoenix Version 1.3, Pharsight Corporation):
(§4) For the preparation of the intravenous solution and the oral suspensions, the correction factor and the purity were applied for all compounds. Blood samples were collected from all animals at all scheduled time points.
(§5) The study samples were analyzed according to the following UPLC®-MS/MS method:

[3] = Stability at 74% RH at 40° C. (XRPD)
in vivo [4] = conditions: male, Wistar, rat, male rats; for bioavailability: F (absolute bioavailability), oral 30 mg/kg AUCt compared with iv 10 mg/kg; for MRT last: MRTt (mean residence time); for AUC(0-t): AUCt; for Cmax: suspension in hydroxypropylmethylcellulose:Tween 80 in WFI, plasma Lapatinib; for Vd/F: Vz/F
Method: as §1, §2, §3, §4, §5

[5] = Stability in water suspension followed by XRPD; type: physicochemical; conditions: 40 volumes of water, room temperature, XRPD at 1, 4 and 24 hours
Method: The three suspensions were stirred at room temperature in 40 volumes of water and the transformation of the product was followed by XRPD at 1 hour, 4 hours and 24 hours.

[6] = Model-based PK analysis (NONMEM), oral administration, two parallel input processes; conditions: for AUC0INF / Absolute Bioavail. / Cmax / MRTINF / Tmax: derived from PK modelling, oral
Description: (§6) Therefore, the absorption process was described by two parallel inputs processes. The first input characterized a fast-release component (with a ka1 rate of absorption) while the second input characterized a delayed release of the drug (with a ka2 rate of absorption). The fraction of the oral dose associated with the first absorption component was estimated by the F parameter, while the remaining fraction of the drug (1-F) was assumed to be released in the second absorption process. The F fraction of the dose was immediately release (lag1) while the release of the remaining (1-F) fraction occurred with an estimated lag time (lag2).
(§7) The disposition and elimination PK parameters of Lapatinib (k12, k21, k13, k31, and kel) for the different oral formulations were fixed to the ones estimated in the IV model due to the limited PK samples available for a proper characterization of these parameters after oral administration.

[7] = pKa values for the FDA co-crystal criterion; type: physicochemical; conditions: approximated by comparison with Gefitinib and Erlotinib; read-out: pKa of the second less basic function
Description: As further confirmation that the products of the present inventions are co-crystals and not simply salts, the criterion adopted by the FDA Guidelines of April 2013 (see below) is here reported: the active ingredient-excipient complex should be classified as co-crystal if ΔpKa of the two species is <1.

[8] = cited from earlier work
[9] = Tyverb EPAR; cited from earlier work
[10] = Intravenous bolus pharmacokinetics, non-compartmental analysis, 10 mg Lapatinib/kg; type: in vivo; conditions: Wistar, rat, plasma, male rats
Method: as §3

[11] = Model-based PK analysis (NONMEM), IV administration, three-compartment model; conditions: Group 1
in vivo [12] = conditions: Wistar, rat, plasma, po, 30 mg/kg
Description: as §6, §7

in vivo [13] = conditions: Wistar, rat, plasma, iv, 10 mg/kg
[14] = listed as co-crystal Lapatinib monotosylate:caprylic acid (1:2)
[15] = plasma, po, 30 mg/kg, oral 30 mg/kg
[16] = listed as co-crystal Lapatinib monotosylate:caproic acid (1:2)
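Wherever Cmax/AUCt (apparent absorption rate) is given: parent drug in plasma quantified by UPLC-MS/MS, parameters derived by non-compartmental analysis of mean concentration-time curves, oral suspension at 3 mg/mL.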
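Wherever F (absolute bioavailability) is given: parent drug in plasma quantified by UPLC-MS/MS, parameters derived by non-compartmental analysis of mean concentration-time curves, oral suspension at 3 mg/mL.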
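Wherever F is given: parent drug in plasma quantified by UPLC-MS/MS, parameters derived by non-compartmental analysis of mean concentration-time curves, oral suspension at 3 mg/mL.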
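Wherever t1/2app (apparent terminal elimination half-life) is given: parent drug in plasma quantified by UPLC-MS/MS, parameters derived by non-compartmental analysis of mean concentration-time curves, oral suspension at 3 mg/mL.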

CCCCCC(=O)O [caproic acid]
pKa [1]: 4.8

CS(=O)(=O)CCNCc1ccc(-c2ccc3ncnc(Nc4ccc(OCc5cccc(F)c5)c(Cl)c4)c3c2)o1 [Form II, Lapatinib monotosylate:caprylic acid (1:2)]
Cmax ([2]; oral 30 mg/kg, 30 mg/kg): 2814 ng/mL
AUCt ([2]; oral 30 mg/kg, 30 mg/kg): 20778 ng·h/mL
Tmax ([2]; oral 30 mg/kg, 30 mg/kg): 3 h
exposure time after which very small amounts of Lapatinib monotosylate Form M1 were detected by XRPD [3]: 60 days
Lapatinib monotosylate observed in the co-crystal after 23 days [3]: only traces
bioavailability (in vivo [4]; in vivo, 30 mg Lapatinib/kg): 50.7%
MRT last (in vivo [4]; in vivo, po, 30 mg/kg, oral 30 mg/kg): 4.67 h
stability in water suspension (XRPD finding) [5]: recovering pure Form II after 24 hours
AUC0INF [6, 14]: 16700 ng·h/mL
Absolute Bioavail. [6, 14]: 39.5%
Cmax [6, 14]: 2813.5 ng/mL
MRTINF [6, 14]: 4.67 h
Tmax [6, 14]: 3 h

CS(=O)(=O)CCNCc1ccc(-c2ccc3ncnc(Nc4ccc(OCc5cccc(F)c5)c(Cl)c4)c3c2)o1 [Lapatinib]
pKa [7]: ~5.4
increase of bioavailability when co-administered with a high fat meal ([8]; compared with fasting conditions, Ratain and Cohen): 325%
drug class (solubility/permeability) ([8]; low solubility-good permeability, Custodio et al.): Class II

CS(=O)(=O)CCNCc1ccc(-c2ccc3ncnc(Nc4ccc(OCc5cccc(F)c5)c(Cl)c4)c3c2)o1 [Form III, Lapatinib monohydrochloride:adipic acid (1:1)]
F (absolute bioavailability) ([2]; oral 30 mg/kg AUCt compared with iv 10 mg/kg): 44.98%
Cmax ([2]; oral 30 mg/kg, 30 mg/kg): 2567 ng/mL
AUCt ([2]; oral 30 mg/kg, 30 mg/kg): 18433 ng·h/mL
Tmax ([2]; oral 30 mg/kg, 30 mg/kg): 3 h
t1/2app (apparent terminal elimination half-life) ([2]; oral 30 mg/kg, 30 mg/kg): 3.13 h

CS(=O)(=O)CCNCc1ccc(-c2ccc3ncnc(Nc4ccc(OCc5cccc(F)c5)c(Cl)c4)c3c2)o1.Cc1ccc(S(=O)(=O)O)cc1 [Lapatinib ditosylate monohydrate, N-{3-chloro-4-[(3-fluorobenzyl)oxy]phenyl}-6-[5-({[2-(methylsulphonyl)ethyl]amino}methyl)furan-2-yl]quinazolin-4-amine bis(4-methylbenzenesulphonate)monohydrate, reference compound]
hygroscopicity [9]: non-hygroscopic
solubility in aqueous media [9]: practically insoluble in aqueous media
Cmax/AUCt (apparent absorption rate) ([2]; oral 30 mg/kg): 0.149 h⁻¹
C0 ([10]; iv bolus 10 mg/kg in DMSO:PEG:WFI (10:40:50), read-out: C0 (extrapolated concentration at time 0)): 20200 ng/mL
AUC(0-t) ([10]; iv bolus 10 mg/kg): 13700 ng·h/mL
MRT last ([10]; iv bolus 10 mg/kg): 1.54 h
k12 ([11]; IV model): 0.616
k13 ([11]; IV model): 3.14
k21 ([11]; IV model): 0.00202
k31 ([11]; IV model): 1.47
kel ([11]; IV model): 1.6
v ([11]; IV model): 0.358
AUC0INF ([11]; derived from PK modelling, IV): 14100 ng·h/mL
T12 ([11]; derived from PK modelling, IV): 176 h
AUC (in vivo [12]): 18400 ng·h/mL
Cmax (in vivo [12]): 3510 ng/mL
MRT inf (in vivo [12]): 4.31 h
Tmax (in vivo [12]): 2 h
bioavailability (in vivo [4]; plasma, oral, 30 mg Lapatinib/kg): 57.5%
AUC(0-t) (in vivo [4]; [15]): 23600 ng·h/mL
CL/F (in vivo [4]; [15]): 21.2 mL/min/kg
Cmax (in vivo [4]; [15]): 3520 ng/mL
MRT last (in vivo [4]; [15]): 4.28 h
Vd/F (in vivo [4]; [15]): 4.38 L/kg
half-life (in vivo [4]; plasma, po, 30 mg/kg, t1/2app (apparent terminal elimination half-life), oral 30 mg/kg): 2.39 h
AUC (in vivo [13]): 12300 ng·h/mL
MRT inf (in vivo [13]): 35.9 h
AUC0INF [6]: 18400 ng·h/mL
Absolute Bioavail. [6]: 43.5%
lag1 ([6]; oral model, first (immediate) release): 0

CS(=O)(=O)CCNCc1ccc(-c2ccc3ncnc(Nc4ccc(OCc5cccc(F)c5)c(Cl)c4)c3c2)o1 [Form I, Lapatinib monotosylate:caproic acid (1:2)]
exposure time after which very small amounts of Lapatinib monotosylate Form M1 were detected by XRPD [3]: 23 days
Lapatinib monotosylate observed in the co-crystal after 23 days [3]: a little amount
AUC(0-t) (in vivo [4]; [15]): 13300 ng·h/mL
CL/F (in vivo [4]; [15]): 33.2 mL/min/kg
Cmax (in vivo [4]; [15]): 3170 ng/mL
bioavailability (in vivo [4]; plasma, po, 30 mg/kg): 32.4%
Vd/F (in vivo [4]; [15]): 6.83 L/kg
Tmax (in vivo [4]; plasma, po, 30 mg/kg, tmax, oral 30 mg/kg): 2 h
AUC0INF [6, 16]: 15000 ng·h/mL
Absolute Bioavail. [6, 16]: 35.5%
Cmax [6, 16]: 3018.6 ng/mL
MRTINF [6, 16]: 3.85 h
Tmax [6, 16]: 1.6 h

CCCCCCCC(=O)O [caprylic acid]
pKa [1]: 4.91
